Measurements reported in PubChem BioAssay AID1963967 (Molecular Pharmacology Branch, DTP, NCI, 2024).
pIC50: −log10 of the molar value.

Tested on: 855422-203-R-J1-PDC spheroids with HUVEC/MSC, viability
Assay: Anticancer human tumor 855422-203-R-J1-PDC patient-derived bladder carcinoma cell line growth inhibition [PI3K]
Settings: for viability, T/C: stronger effect = lower value
Outline: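 We assembled tumor spheroids that included a stromal compartment of HUVEC and MSCs, then exposed them to targeted agents alone and together with PI3K pathway inhibitors. Concentration series descended by half-log from clinically achievable Cmax levels. Viability served as the endpoint.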

[1] = curve of first compound, second compound 0.0316 µM
[2] = curve of first compound, second compound 0.1 µM
[3] = curve of first compound, second compound 0.316 µM
[4] = curve of first compound, second compound 1 µM
[5] = second compound 0.0316 µM, first compound 0.0316 µM
[6] = second compound 0.0316 µM, first compound 0.1 µM
[7] = second compound 0.0316 µM, first compound 0.316 µM
[8] = second compound 0.0316 µM, first compound 1 µM
[9] = second compound 0.0316 µM, first compound 3.16 µM
[10] = second compound 0.0316 µM, first compound 10 µM
[11] = second compound 0.1 µM, first compound 0.0316 µM
[12] = second compound 0.1 µM, first compound 0.1 µM
[13] = second compound 0.1 µM, first compound 0.316 µM
[14] = second compound 0.1 µM, first compound 1 µM
[15] = second compound 0.1 µM, first compound 3.16 µM
[16] = second compound 0.1 µM, first compound 10 µM
[17] = second compound 0.316 µM, first compound 0.0316 µM
[18] = second compound 0.316 µM, first compound 0.1 µM
[19] = second compound 0.316 µM, first compound 0.316 µM
[20] = second compound 0.316 µM, first compound 1 µM
[21] = second compound 0.316 µM, first compound 3.16 µM
[22] = second compound 0.316 µM, first compound 10 µM
[23] = second compound 1 µM, first compound 0.0316 µM
[24] = second compound 1 µM, first compound 0.1 µM
[25] = second compound 1 µM, first compound 0.316 µM
[26] = second compound 1 µM, first compound 1 µM
[27] = second compound 1 µM, first compound 3.16 µM
[28] = second compound 1 µM, first compound 10 µM
[29] = curve of first compound, second compound 0.00316 µM
[30] = curve of first compound, second compound 0.01 µM
[31] = second compound 0.00316 µM, first compound 0.0316 µM
[32] = second compound 0.00316 µM, first compound 0.1 µM
[33] = second compound 0.00316 µM, first compound 0.316 µM
[34] = second compound 0.00316 µM, first compound 1 µM
[35] = second compound 0.00316 µM, first compound 3.16 µM
[36] = second compound 0.00316 µM, first compound 10 µM
[37] = second compound 0.01 µM, first compound 0.0316 µM
[38] = second compound 0.01 µM, first compound 0.1 µM
[39] = second compound 0.01 µM, first compound 0.316 µM
[40] = second compound 0.01 µM, first compound 1 µM
[41] = second compound 0.01 µM, first compound 3.16 µM
[42] = second compound 0.01 µM, first compound 10 µM
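Further: agents incubated with spheroids for one week before read-out.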
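Wherever viability, T/C is given: 100% = DMSO vehicle-treated control wells.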

For CC1(C)CCC(Nc2ncc(C(F)(F)F)c(-c3c[nH]c4c(P(C)(C)=O)c(C#N)ccc34)n2)CN1 (configuration not stated) + CC(Nc1ncnc2nc[nH]c12)c1cc2cccc(Cl)c2c(=O)n1-c1ccccc1, the pIC50 [1] was > 7.50, the pIC50 [2] was > 7.50 and the pIC50 [3] was > 7.50. For the same compound, the pIC50 [4] was > 7.50, the pIC50 (curve of first compound, second compound 3.16 µM) was > 7.50 and the pIC50 (curve of first compound, second compound 10 µM) was > 7.50. For the same compound, the viability, T/C [5] was 30.3%, the viability, T/C [6] was 24.1% and the viability, T/C [7] was 25%. The viability, T/C [8] was 26.8%, the viability, T/C [9] was 28.9% and the viability, T/C [10] was 3.47%. The viability, T/C [11] was 27.4%, the viability, T/C [12] was 25% and the viability, T/C [13] was 24.6%. It also gave a viability, T/C [14] of 27%, a viability, T/C [15] of 30.2% and a viability, T/C [16] of 5.41%. It also gave a viability, T/C [17] of 27.2%, a viability, T/C [18] of 24.9% and a viability, T/C [19] of 23.8%. For the same compound, the viability, T/C [20] was 27.5%, the viability, T/C [21] was 31.6% and the viability, T/C [22] was 4.23%. For the same compound, the viability, T/C [23] was 24.2%, the viability, T/C [24] was 28.2% and the viability, T/C [25] was 27.2%. It also gave a viability, T/C [26] of 26.7%, a viability, T/C [27] of 26% and a viability, T/C [28] of 5.15%. For the same compound, the viability, T/C (second compound 3.16 µM, first compound 0.0316 µM) was 23%, the viability, T/C (second compound 3.16 µM, first compound 0.1 µM) was 23.1% and the viability, T/C (second compound 3.16 µM, first compound 0.316 µM) was 24.6%. For the same compound, the viability, T/C (second compound 3.16 µM, first compound 1 µM) was 23.9%, the viability, T/C (second compound 3.16 µM, first compound 3.16 µM) was 26.6% and the viability, T/C (second compound 3.16 µM, first compound 10 µM) was 2.74%. It also gave a viability, T/C (second compound 10 µM, first compound 0.0316 µM) of 23.8%, a viability, T/C (second compound 10 µM, first compound 0.1 µM) of 21.4% and a viability, T/C (second compound 10 µM, first compound 0.316 µM) of 18.8%. The viability, T/C (second compound 10 µM, first compound 1 µM) was 23.7%, the viability, T/C (second compound 10 µM, first compound 3.16 µM) was 18.9% and the viability, T/C (second compound 10 µM, first compound 10 µM) was 1.26%.

With CC(Cn1ccc(-c2ccc(C#N)c(Cl)c2)n1)NC(=O)c1cc(C(C)O)[nH]n1 (configuration not stated) + COc1c(OCCCN2CCOCC2)ccc2c3n(c(=NC(=O)c4cnc(N)nc4)nc12)CCN3 the pIC50 [29] was < 5.00, the pIC50 [30] was < 5.00 and the pIC50 [1] was < 5.00. The pIC50 [2] was > 7.50, the pIC50 [3] was > 7.50 and the pIC50 [4] was > 7.50. The viability, T/C [31] was 110%, the viability, T/C [32] was 90.4% and the viability, T/C [33] was 99.9%. For the same compound, the viability, T/C [34] was 80.3%, the viability, T/C [35] was 108% and the viability, T/C [36] was 86.8%. It also gave a viability, T/C [37] of 91.4%, a viability, T/C [38] of 83.7% and a viability, T/C [39] of 87.4%. For the same compound, the viability, T/C [40] was 103%, the viability, T/C [41] was 86.6% and the viability, T/C [42] was 72.8%. For the same compound, the viability, T/C [5] was 60.4%, the viability, T/C [6] was 64.4% and the viability, T/C [7] was 59.8%. It also gave a viability, T/C [8] of 68.7%, a viability, T/C [9] of 75.3% and a viability, T/C [10] of 58.6%. It also gave a viability, T/C [11] of 26.6%, a viability, T/C [12] of 25.5% and a viability, T/C [13] of 27.3%. It also gave a viability, T/C [14] of 30.1%, a viability, T/C [15] of 27.9% and a viability, T/C [16] of 25.3%. The viability, T/C [17] was 7.87%, the viability, T/C [18] was 8.84% and the viability, T/C [19] was 7.77%. The viability, T/C [20] was 9.07%, the viability, T/C [21] was 10.8% and the viability, T/C [22] was 7.91%. It also gave a viability, T/C [23] of 5.17%, a viability, T/C [24] of 4.25% and a viability, T/C [25] of 3.21%. The viability, T/C [26] was 3.76%, the viability, T/C [27] was 4.49% and the viability, T/C [28] was 3.05%.

In the case of C=CC(=O)N1CCN(c2nc(=O)n(-c3c(C)ccnc3C(C)C)c3nc(-c4c(O)cccc4F)c(F)cc23)C(C)C1 (configuration not stated) + COc1c(OCCCN2CCOCC2)ccc2c3n(c(=NC(=O)c4cnc(N)nc4)nc12)CCN3, the pIC50 [29] was < 5.00, the pIC50 [30] was < 5.00 and the pIC50 [1] was < 5.00. For the same compound, the pIC50 [2] was > 7.50, the pIC50 [3] was > 7.50 and the pIC50 [4] was > 7.50. It also gave a viability, T/C [31] of 94%, a viability, T/C [32] of 90.8% and a viability, T/C [33] of 116%. It also gave a viability, T/C [34] of 98.8%, a viability, T/C [35] of 101% and a viability, T/C [36] of 97%. The viability, T/C [37] was 82%, the viability, T/C [38] was 99.4% and the viability, T/C [39] was 98%. The viability, T/C [40] was 89.9%, the viability, T/C [41] was 93.6% and the viability, T/C [42] was 103%. It also gave a viability, T/C [5] of 52%, a viability, T/C [6] of 60.2% and a viability, T/C [7] of 66%. The viability, T/C [8] was 79.2%, the viability, T/C [9] was 87.2% and the viability, T/C [10] was 92.6%. It also gave a viability, T/C [11] of 24.5%, a viability, T/C [12] of 34.4% and a viability, T/C [13] of 33.5%. For the same compound, the viability, T/C [14] was 42.1%, the viability, T/C [15] was 37.2% and the viability, T/C [16] was 34.9%. The viability, T/C [17] was 9.32%, the viability, T/C [18] was 8.33% and the viability, T/C [19] was 10.5%. The viability, T/C [20] was 10.1%, the viability, T/C [21] was 11.6% and the viability, T/C [22] was 7.98%. For the same compound, the viability, T/C [23] was 3.32%, the viability, T/C [24] was 4.63% and the viability, T/C [25] was 3.78%. It also gave a viability, T/C [26] of 3.95%, a viability, T/C [27] of 3.61% and a viability, T/C [28] of 1.93%.

In the case of C=CC(=O)N1CCN(c2nc(=O)n(-c3c(C)ccnc3C(C)C)c3nc(-c4c(O)cccc4F)c(F)cc23)C(C)C1 (configuration not stated), the viability, T/C (compound 0.0316 µM) was 109% [middle of 4 runs], the viability, T/C (compound 0.1 µM) was 95.2% [middle of 4 runs] and the viability, T/C (compound 0.316 µM) was 117% [middle of 4 runs]. The viability, T/C (compound 1 µM) was 108% [middle of 4 runs], the viability, T/C (compound 3.16 µM) was 122% [middle of 4 runs] and the viability, T/C (compound 10 µM) was 121% [middle of 4 runs]. The pIC50 (curve of compound) was < 5.00.

C[C@@H](NC(=O)c1ncnc(N)c1Cl)c1ncc(C(=O)Nc2cc(C(F)(F)F)c(Cl)cn2)s1 + COc1c(OCCCN2CCOCC2)ccc2c3n(c(=NC(=O)c4cnc(N)nc4)nc12)CCN3 was tested, and the pIC50 [29] was < 5.00, the pIC50 [30] was < 5.00 and the pIC50 [1] was < 5.00. For the same compound, the pIC50 [2] was > 7.50, the pIC50 [3] was > 7.50 and the pIC50 [4] was > 7.50. It also gave a viability, T/C [31] of 93.8%, a viability, T/C [32] of 91.3% and a viability, T/C [33] of 104%. It also gave a viability, T/C [34] of 97.4%, a viability, T/C [35] of 109% and a viability, T/C [36] of 113%. For the same compound, the viability, T/C [37] was 80%, the viability, T/C [38] was 85.2% and the viability, T/C [39] was 88.5%. It also gave a viability, T/C [40] of 89.4%, a viability, T/C [41] of 108% and a viability, T/C [42] of 83%. The viability, T/C [5] was 59.4%, the viability, T/C [6] was 69.3% and the viability, T/C [7] was 68.8%. The viability, T/C [8] was 61.6%, the viability, T/C [9] was 71.3% and the viability, T/C [10] was 36.7%. For the same compound, the viability, T/C [11] was 35.9%, the viability, T/C [12] was 38.3% and the viability, T/C [13] was 33.7%. For the same compound, the viability, T/C [14] was 35.9%, the viability, T/C [15] was 27.8% and the viability, T/C [16] was 16.2%. The viability, T/C [17] was 13.4%, the viability, T/C [18] was 12.5% and the viability, T/C [19] was 12.5%. The viability, T/C [20] was 13.7%, the viability, T/C [21] was 11.2% and the viability, T/C [22] was 5.99%. The viability, T/C [23] was 4.22%, the viability, T/C [24] was 7.01% and the viability, T/C [25] was 5.73%. For the same compound, the viability, T/C [26] was 4.13%, the viability, T/C [27] was 3.47% and the viability, T/C [28] was 1.26%.

In the case of Cn1cnc2c(F)c(Nc3ccc(Br)cc3Cl)c(C(=O)NOCCO)cc21, the viability, T/C (compound 0.00949 µM) was 100% [middle of 4 runs], the viability, T/C (compound 0.03 µM) was 94.8% [middle of 4 runs] and the viability, T/C (compound 0.0949 µM) was 101% [middle of 4 runs]. For the same compound, the viability, T/C (compound 0.3 µM) was 88% [middle of 4 runs], the viability, T/C (compound 0.949 µM) was 87.5% [middle of 4 runs] and the viability, T/C (compound 3 µM) was 47% [middle of 4 runs]. For the same compound, the IC50 (curve of compound) was 2.81 µM [middle of 4 runs].
